According to ChEMBL document CHEMBL1144370, “3-Acyl-2,6-diaminopyridines as cyclin-dependent kinase inhibitors: synthesis and biological evaluation” (Bioorg Med Chem Lett, 2005):

How the values were obtained:
[1] = In vitro inhibitory concentration against cyclin-dependent kinase 1; design: species or system Homo sapiens
[2] = target: Epidermal growth factor receptor (Homo sapiens, UniProt P00533); experiment: In vitro inhibitory concentration against epidermal growth factor receptor
[3] = target: Receptor tyrosine-protein kinase erbB-2 (Homo sapiens, UniProt P04626); experiment: In vitro inhibitory concentration against HER2
[4] = target: Cyclin-dependent kinase 2 (Homo sapiens, UniProt P24941); experiment: In vitro inhibitory concentration against cyclin-dependent kinase 2
[5] = tested on: A-375; experiment: Compound tested for anti-proliferative activity against A375 cells; format: functional, cell-based; settings: Homo sapiens
[6] = tested on: HeLa; experiment: Compound tested for anti-proliferative activity against HeLa cells; format: functional, cell-based; settings: Homo sapiens
[7] = tested on: HCT-116; experiment: Compound tested for anti-proliferative activity against HCT116 cells; format: functional, cell-based; settings: Homo sapiens
[8] = target: T1, Vascular endothelial growth factor receptor 2 (Homo sapiens, UniProt P35968); experiment: In vitro inhibitory concentration against vascular endothelial growth factor receptor 2
[9] = target: T1, Vascular endothelial growth factor receptor 2; experiment: In vitro inhibitory concentration against Vascular endothelial growth factor receptor 2

Sequence of Epidermal growth factor receptor (P00533 whole entry): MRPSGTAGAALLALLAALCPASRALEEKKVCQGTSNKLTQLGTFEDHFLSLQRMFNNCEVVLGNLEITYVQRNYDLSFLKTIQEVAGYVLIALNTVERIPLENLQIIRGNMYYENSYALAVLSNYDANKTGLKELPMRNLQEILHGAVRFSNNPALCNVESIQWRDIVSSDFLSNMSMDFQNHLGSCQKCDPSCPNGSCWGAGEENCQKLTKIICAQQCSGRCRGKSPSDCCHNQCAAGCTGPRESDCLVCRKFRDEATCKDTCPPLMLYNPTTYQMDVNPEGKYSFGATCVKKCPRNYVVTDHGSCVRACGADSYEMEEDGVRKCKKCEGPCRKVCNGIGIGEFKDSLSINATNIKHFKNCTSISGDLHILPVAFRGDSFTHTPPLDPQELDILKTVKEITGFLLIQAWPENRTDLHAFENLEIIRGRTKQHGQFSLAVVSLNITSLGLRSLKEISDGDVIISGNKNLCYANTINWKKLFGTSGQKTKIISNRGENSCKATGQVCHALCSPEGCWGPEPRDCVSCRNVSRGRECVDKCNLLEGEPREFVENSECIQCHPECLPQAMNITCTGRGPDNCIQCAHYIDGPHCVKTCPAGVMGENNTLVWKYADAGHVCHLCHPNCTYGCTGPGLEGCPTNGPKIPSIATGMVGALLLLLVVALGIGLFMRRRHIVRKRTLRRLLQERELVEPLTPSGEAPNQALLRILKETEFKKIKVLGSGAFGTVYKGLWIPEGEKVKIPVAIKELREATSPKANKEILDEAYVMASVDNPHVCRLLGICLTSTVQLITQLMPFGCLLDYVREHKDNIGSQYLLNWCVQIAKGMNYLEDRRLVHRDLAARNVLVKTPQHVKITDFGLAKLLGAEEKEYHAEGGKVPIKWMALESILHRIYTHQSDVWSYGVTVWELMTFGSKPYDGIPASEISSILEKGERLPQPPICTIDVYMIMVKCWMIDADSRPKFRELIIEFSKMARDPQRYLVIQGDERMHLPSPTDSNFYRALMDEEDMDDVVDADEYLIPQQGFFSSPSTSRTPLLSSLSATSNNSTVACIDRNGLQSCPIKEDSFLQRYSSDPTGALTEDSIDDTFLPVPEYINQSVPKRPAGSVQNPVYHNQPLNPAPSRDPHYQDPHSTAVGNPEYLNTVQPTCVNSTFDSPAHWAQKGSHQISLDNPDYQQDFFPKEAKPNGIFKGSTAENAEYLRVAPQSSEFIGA
Sequence of Receptor tyrosine-protein kinase erbB-2 (P04626 whole entry): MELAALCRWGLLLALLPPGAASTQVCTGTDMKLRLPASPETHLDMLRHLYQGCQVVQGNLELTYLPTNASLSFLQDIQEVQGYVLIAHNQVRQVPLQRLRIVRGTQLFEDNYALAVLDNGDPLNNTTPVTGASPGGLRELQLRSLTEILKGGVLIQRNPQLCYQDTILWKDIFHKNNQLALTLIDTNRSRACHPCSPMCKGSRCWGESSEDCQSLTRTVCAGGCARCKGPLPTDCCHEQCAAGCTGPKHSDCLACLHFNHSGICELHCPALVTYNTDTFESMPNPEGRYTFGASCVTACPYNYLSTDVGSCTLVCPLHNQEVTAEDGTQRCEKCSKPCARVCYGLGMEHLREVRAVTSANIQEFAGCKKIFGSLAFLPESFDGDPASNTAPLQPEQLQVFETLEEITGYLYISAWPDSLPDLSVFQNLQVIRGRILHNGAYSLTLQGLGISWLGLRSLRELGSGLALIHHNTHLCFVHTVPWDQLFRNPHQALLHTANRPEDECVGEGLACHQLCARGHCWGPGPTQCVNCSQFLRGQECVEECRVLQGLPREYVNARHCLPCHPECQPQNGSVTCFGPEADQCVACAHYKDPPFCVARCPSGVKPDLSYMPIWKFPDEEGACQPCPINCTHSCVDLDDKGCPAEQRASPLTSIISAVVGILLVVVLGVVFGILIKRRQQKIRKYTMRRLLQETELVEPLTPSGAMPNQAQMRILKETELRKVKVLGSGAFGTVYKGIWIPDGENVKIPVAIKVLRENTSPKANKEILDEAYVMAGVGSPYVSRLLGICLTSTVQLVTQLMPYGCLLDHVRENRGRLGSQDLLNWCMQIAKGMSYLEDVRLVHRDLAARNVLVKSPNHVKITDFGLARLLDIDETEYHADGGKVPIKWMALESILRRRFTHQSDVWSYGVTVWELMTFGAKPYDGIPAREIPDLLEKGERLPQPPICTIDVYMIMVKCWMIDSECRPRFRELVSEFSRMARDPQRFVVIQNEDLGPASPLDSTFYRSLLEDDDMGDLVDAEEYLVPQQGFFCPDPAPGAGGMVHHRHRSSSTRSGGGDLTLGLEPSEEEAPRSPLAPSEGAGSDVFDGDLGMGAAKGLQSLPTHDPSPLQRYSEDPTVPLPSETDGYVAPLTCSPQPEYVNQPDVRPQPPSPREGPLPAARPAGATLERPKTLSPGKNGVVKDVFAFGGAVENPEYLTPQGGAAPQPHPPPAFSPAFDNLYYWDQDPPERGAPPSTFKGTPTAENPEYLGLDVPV
T1 sequence (P35968 whole entry): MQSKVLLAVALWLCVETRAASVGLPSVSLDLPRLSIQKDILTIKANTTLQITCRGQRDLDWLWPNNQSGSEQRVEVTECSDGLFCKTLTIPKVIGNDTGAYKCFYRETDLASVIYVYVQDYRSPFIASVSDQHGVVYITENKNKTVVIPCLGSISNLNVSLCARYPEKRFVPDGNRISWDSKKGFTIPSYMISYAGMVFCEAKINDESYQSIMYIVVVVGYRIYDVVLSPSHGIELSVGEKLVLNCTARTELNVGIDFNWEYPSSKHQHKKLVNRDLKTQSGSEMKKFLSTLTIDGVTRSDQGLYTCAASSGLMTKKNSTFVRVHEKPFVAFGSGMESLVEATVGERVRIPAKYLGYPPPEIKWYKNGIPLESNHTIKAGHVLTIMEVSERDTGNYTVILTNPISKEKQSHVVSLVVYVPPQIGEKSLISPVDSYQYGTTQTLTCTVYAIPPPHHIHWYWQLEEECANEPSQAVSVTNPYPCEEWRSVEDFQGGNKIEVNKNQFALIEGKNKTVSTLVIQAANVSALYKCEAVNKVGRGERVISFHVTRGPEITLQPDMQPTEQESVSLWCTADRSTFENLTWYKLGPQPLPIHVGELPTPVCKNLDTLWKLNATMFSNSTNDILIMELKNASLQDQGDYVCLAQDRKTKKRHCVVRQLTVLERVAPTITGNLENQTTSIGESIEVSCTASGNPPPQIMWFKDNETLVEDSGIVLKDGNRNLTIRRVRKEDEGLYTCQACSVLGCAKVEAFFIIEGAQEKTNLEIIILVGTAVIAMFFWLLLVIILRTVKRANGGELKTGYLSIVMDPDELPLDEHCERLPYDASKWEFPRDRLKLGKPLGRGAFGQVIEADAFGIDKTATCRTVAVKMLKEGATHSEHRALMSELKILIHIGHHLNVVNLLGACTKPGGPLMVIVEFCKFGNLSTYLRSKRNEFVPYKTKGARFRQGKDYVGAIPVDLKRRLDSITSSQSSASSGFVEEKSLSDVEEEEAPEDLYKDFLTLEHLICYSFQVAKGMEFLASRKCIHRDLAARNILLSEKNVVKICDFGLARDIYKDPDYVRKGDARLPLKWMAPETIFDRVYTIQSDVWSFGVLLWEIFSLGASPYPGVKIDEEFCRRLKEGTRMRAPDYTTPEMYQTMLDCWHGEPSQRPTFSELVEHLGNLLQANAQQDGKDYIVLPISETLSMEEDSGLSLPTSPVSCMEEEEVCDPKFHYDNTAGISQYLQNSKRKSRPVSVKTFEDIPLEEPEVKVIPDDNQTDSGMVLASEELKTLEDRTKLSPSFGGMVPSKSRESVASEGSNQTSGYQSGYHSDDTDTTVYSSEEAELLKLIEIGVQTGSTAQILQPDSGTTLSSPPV

Work on `Nc1nc(Nc2ccccc2NC(=O)c2ccccc2)ccc1C(=O)c1c(F)cccc1F` yielded an IC50 [1] greater than 100 µM.
`Nc1nc(Nc2ccc([N+](=O)[O-])cc2)ccc1C(=O)c1c(F)cccc1F` showed an IC50 [1] of 0.96 µM.
`CCCCOc1cc(N)nc(N)c1C(=O)c1c(F)cccc1F` showed an IC50 [1] of 1.2 µM.
`CN(C)S(=O)(=O)c1ccc(Nc2ccc(C(=O)c3ccco3)c(N)n2)cc1` gave an IC50 [1] of 10.6 µM.
For `N#Cc1ccc(Nc2ccc(C(=O)c3c(F)cccc3F)c(N)n2)cc1`, the IC50 [1] was 1.37 µM.
For `CCCCOc1cc(Nc2ccc(S(=O)(=O)N(C)C)cc2)nc(N)c1C(=O)c1c(F)cccc1F`, the IC50 [1] was 1 µM.
With `Nc1ccc(C(=O)c2ccco2)c(N)n1` the IC50 [1] was greater than 100 µM.
With `CNc1ccc(Nc2ccc(C(=O)c3c(F)cccc3F)c(N)n2)cc1` the IC50 [1] was 1.14 µM.
`Nc1nc(Nc2ccccc2NS(=O)(=O)c2ccccc2)ccc1C(=O)c1c(F)cccc1F` gave an IC50 [1] greater than 100 µM.
`Nc1ccccc1Nc1ccc(C(=O)c2c(F)cccc2F)c(N)n1` gave an IC50 [1] of 11.6 µM.
Work on `Nc1nc(Nc2cccc([N+](=O)[O-])c2)ccc1C(=O)c1c(F)cccc1F` yielded an IC50 [1] of 2.67 µM.
For `CN(C)S(=O)(=O)c1ccc(Nc2ccc(C(=O)c3c(F)cccc3F)c(N)n2)cc1`, the IC50 [2] was greater than 100 µM, the IC50 [3] was greater than 100 µM and the IC50 [1] was 0.59 µM. It also gave an IC50 [4] of 0.5 µM, an IC50 [5] greater than 10 µM and an IC50 [6] greater than 10 µM. It also gave an IC50 [7] greater than 10 µM and an IC50 [8] greater than 100 µM.
With `Nc1nc(Nc2ccc(C(=O)O)cc2)ccc1C(=O)c1c(F)cccc1F` the IC50 [1] was roughly 10 µM.
For `Nc1ccc(C(=O)c2ccccc2F)c(N)n1`, the IC50 [1] was 8.2 µM.
With `CN(C)S(=O)(=O)c1ccc(Nc2ccc(C(=O)c3ccccc3F)c(N)n2)cc1` the IC50 [1] was 1.96 µM.
`NC(=O)c1ccc(Nc2ccc(C(=O)c3c(F)cccc3F)c(N)n2)cc1` showed an IC50 [1] of 0.95 µM.
`CCN(CC)S(=O)(=O)c1ccc(Nc2ccc(C(=O)c3ccco3)c(N)n2)cc1` showed an IC50 [1] greater than 100 µM.
`CN(C)S(=O)(=O)c1ccc(Nc2ccc(C(=O)c3cccs3)c(N)n2)cc1` gave an IC50 [1] of 12.7 µM.
Work on `Nc1nc(Nc2ccccn2)ccc1C(=O)c1c(F)cccc1F` yielded an IC50 [1] of 12.3 µM.
Work on `Nc1ccc(C(=O)c2c(F)cccc2F)c(N)n1` yielded an IC50 [1] of 2.6 µM.
`CC(=O)Nc1ccccc1Nc1ccc(C(=O)c2c(F)cccc2F)c(N)n1` showed an IC50 [1] greater than 100 µM.
`Nc1nc(Nc2ccccc2)ccc1C(=O)c1c(F)cccc1F` showed an IC50 [1] of 21.7 µM.
For `Nc1ccc(C(=O)c2cccs2)c(N)n1`, the IC50 [1] was greater than 100 µM.
With `CN(C)S(=O)(=O)c1ccc(Nc2ccc(C(=O)c3ccccc3)c(N)n2)cc1` the IC50 [1] was 2.19 µM.
With `Nc1nc(Nc2ccc(S(=O)(=O)N(Cc3ccccc3)Cc3ccccc3)cc2)ccc1C(=O)c1c(F)cccc1F` the IC50 [1] was greater than 10 µM.
`Nc1ccc(C(=O)c2ccccc2)c(N)n1` gave an IC50 [1] of 1.1 µM.
In the case of `CCN(CC)S(=O)(=O)c1ccc(Nc2ccc(C(=O)c3ccccc3)c(N)n2)cc1`, the IC50 [1] is reported as greater than 100 µM.
`Nc1nc(Nc2ccccc2[N+](=O)[O-])ccc1C(=O)c1c(F)cccc1F` showed an IC50 [1] greater than 10 µM.
`Nc1nc(Nc2cccc(Cl)c2)ccc1C(=O)c1c(F)cccc1F` gave an IC50 [1] of 6.16 µM.
`Nc1ccc(Nc2ccc(C(=O)c3c(F)cccc3F)c(N)n2)cc1` showed an IC50 [1] of 0.75 µM.
`Nc1nc(Nc2ccc(S(N)(=O)=O)cc2)ccc1C(=O)c1c(F)cccc1F` showed an IC50 [2] greater than 100 µM, an IC50 [3] greater than 100 µM and an IC50 [1] of 0.36 µM. It also gave an IC50 [4] of 0.18 µM, an IC50 [5] of 6.5 µM and an IC50 [6] of 17.2 µM. The IC50 [7] was 16.5 µM and the IC50 [9] was greater than 100 µM.
In the case of `Nc1nc(Nc2ccc(NS(=O)(=O)c3ccccc3)cc2)ccc1C(=O)c1c(F)cccc1F`, the IC50 [1] is reported as 0.74 µM.
For `CCCCOc1cc(Nc2ccc(S(N)(=O)=O)cc2)nc(N)c1C(=O)c1c(F)cccc1F`, the IC50 [2] was greater than 100 µM, the IC50 [3] was greater than 100 µM and the IC50 [1] was 0.26 µM. For the same molecule, the IC50 [4] was 0.084 µM, the IC50 [5] was 2.9 µM and the IC50 [6] was 10.7 µM. It also gave an IC50 [7] of 6.7 µM and an IC50 [9] greater than 100 µM.
